target: T1, Beta-3 adrenergic receptor (Homo sapiens, UniProt P13945); experiment: Displacement of [125I]CYP from human adrenergic beta 3 receptor transfected in CHO cells in presence of 100 uM GTP; type: cell-based
Target sequence in this assay (P13945 whole entry): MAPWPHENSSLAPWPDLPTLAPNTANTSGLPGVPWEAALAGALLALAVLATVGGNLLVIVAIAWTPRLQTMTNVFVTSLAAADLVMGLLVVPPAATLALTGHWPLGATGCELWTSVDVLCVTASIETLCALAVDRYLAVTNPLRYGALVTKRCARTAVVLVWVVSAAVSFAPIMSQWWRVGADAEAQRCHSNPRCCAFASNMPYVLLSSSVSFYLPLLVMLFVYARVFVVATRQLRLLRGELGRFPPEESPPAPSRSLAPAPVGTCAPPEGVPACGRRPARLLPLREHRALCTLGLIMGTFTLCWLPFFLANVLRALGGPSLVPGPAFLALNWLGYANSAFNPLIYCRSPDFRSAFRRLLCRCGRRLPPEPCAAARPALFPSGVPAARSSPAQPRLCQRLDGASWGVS

Row | Compound | Ki
1 | CCOC(=O)COc1ccc(C[C@@H](C)NC[C@H](O)c2cc(Br)no2)cc1 | 10.1 µM
2 | CCCCOc1ccc(C[C@@H](C)NC[C@H](O)c2cc(Br)no2)cc1 | 2.49 µM
3 | CCOC(=O)COc1ccc(C[C@@H](C)NC[C@@H](O)c2cc(Br)no2)cc1 | 21.8 µM
4 | CC(C)(C)NCC(O)c1cc(NS(C)(=O)=O)no1 (racemic) | > 100 µM
5 | C[C@H](Cc1ccc(OCC(=O)O)cc1)NC[C@H](O)c1cc(Br)no1 | 22 µM
6 | CCCCOc1ccc(C[C@@H](C)NC[C@@H](O)c2cc(Br)no2)cc1 | 10.7 µM
7 | C[C@H](Cc1ccc(OCC(=O)O)cc1)NC[C@@H](O)c1cc(Br)no1 | > 50 µM

target: T1, Beta-3 adrenergic receptor; experiment: Efficacy at human adrenergic beta 3 receptor transfected in CHO cells assessed as stimulation of adenylyl cyclase at 100 uM relative to isoproterenol; type: functional, cell-based
Target sequence in this assay (P13945 whole entry, looked up): as the sequence (P13945 whole entry) above

Row | Compound | Efficacy
8 | CCOC(=O)COc1ccc(C[C@@H](C)NC[C@H](O)c2cc(Br)no2)cc1 | 56%
9 | CCCCOc1ccc(C[C@@H](C)NC[C@H](O)c2cc(Br)no2)cc1 | 51%
10 | CCOC(=O)COc1ccc(C[C@@H](C)NC[C@@H](O)c2cc(Br)no2)cc1 | 39%
11 | C[C@H](Cc1ccc(OCC(=O)O)cc1)NC[C@H](O)c1cc(Br)no1 | 50%
12 | CCCCOc1ccc(C[C@@H](C)NC[C@@H](O)c2cc(Br)no2)cc1 | 31%
13 | C[C@H](Cc1ccc(OCC(=O)O)cc1)NC[C@@H](O)c1cc(Br)no1 | 34%

target: Beta-2 adrenergic receptor (Homo sapiens, UniProt P07550); experiment: Displacement of [125I]CYP from human adrenergic beta 2 receptor transfected in CHO cells in presence of 100 uM GTP; type: cell-based
Sequence (P07550 whole entry): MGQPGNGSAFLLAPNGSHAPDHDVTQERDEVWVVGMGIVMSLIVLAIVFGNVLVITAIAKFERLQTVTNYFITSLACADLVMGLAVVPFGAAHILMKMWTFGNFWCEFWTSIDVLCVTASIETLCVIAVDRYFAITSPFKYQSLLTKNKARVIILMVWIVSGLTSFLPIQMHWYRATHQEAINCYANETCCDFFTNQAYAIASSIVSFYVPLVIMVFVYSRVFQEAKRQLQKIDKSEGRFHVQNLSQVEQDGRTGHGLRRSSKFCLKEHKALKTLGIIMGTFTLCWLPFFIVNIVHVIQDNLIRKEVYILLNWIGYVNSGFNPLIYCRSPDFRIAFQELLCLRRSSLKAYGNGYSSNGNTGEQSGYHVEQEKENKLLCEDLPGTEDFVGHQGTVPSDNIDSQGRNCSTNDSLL

Row | Compound | Ki
14 | CCOC(=O)COc1ccc(C[C@@H](C)NC[C@H](O)c2cc(Br)no2)cc1 | 2.82 nM
15 | CCCCOc1ccc(C[C@@H](C)NC[C@H](O)c2cc(Br)no2)cc1 | 15.5 nM
16 | C[C@H](Cc1ccc(OCC(=O)O)cc1)NC[C@H](O)c1cccc(Cl)c1 (racemic) | 2850 nM
17 | CCOC(=O)COc1ccc(C[C@@H](C)NC[C@@H](O)c2cc(Br)no2)cc1 | 81.4 nM
18 | CC(C)(C)NCC(O)c1cc(NS(C)(=O)=O)no1 (racemic) | > 100000 nM
19 | C[C@H](Cc1ccc(OCC(=O)O)cc1)NC[C@H](O)c1cc(Br)no1 | 13.9 nM
20 | CCCCOc1ccc(C[C@@H](C)NC[C@@H](O)c2cc(Br)no2)cc1 | 458 nM
21 | C[C@H](Cc1ccc(OCC(=O)O)cc1)NC[C@@H](O)c1cc(Br)no1 | 501 nM

target: Beta-1 adrenergic receptor (Homo sapiens, UniProt P08588); experiment: Displacement of [125I]CYP from human adrenergic beta 1 receptor transfected in CHO cells in presence of 100 uM GTP; type: cell-based
Sequence (P08588 whole entry): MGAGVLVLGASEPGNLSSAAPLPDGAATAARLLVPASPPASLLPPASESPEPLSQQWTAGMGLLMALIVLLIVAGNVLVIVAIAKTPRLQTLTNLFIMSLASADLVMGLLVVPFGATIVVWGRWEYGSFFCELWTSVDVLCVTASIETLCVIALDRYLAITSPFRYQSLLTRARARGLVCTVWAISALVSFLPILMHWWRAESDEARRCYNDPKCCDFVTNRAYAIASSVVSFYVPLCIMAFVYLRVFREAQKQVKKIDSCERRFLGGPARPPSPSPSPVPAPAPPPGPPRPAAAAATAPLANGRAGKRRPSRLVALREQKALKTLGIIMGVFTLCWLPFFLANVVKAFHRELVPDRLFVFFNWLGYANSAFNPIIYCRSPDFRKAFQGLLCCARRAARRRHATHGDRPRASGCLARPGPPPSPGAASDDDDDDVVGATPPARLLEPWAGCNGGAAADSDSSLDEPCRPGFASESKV

Row | Compound | Ki
22 | CCOC(=O)COc1ccc(C[C@@H](C)NC[C@H](O)c2cc(Br)no2)cc1 | 23.2 nM
23 | CCCCOc1ccc(C[C@@H](C)NC[C@H](O)c2cc(Br)no2)cc1 | 66.7 nM
24 | CCOC(=O)COc1ccc(C[C@@H](C)NC[C@@H](O)c2cc(Br)no2)cc1 | 1110 nM
25 | CC(C)(C)NCC(O)c1cc(NS(C)(=O)=O)no1 (racemic) | > 100000 nM
26 | C[C@H](Cc1ccc(OCC(=O)O)cc1)NC[C@H](O)c1cc(Br)no1 | 61.1 nM
27 | CCCCOc1ccc(C[C@@H](C)NC[C@@H](O)c2cc(Br)no2)cc1 | 2160 nM
28 | C[C@H](Cc1ccc(OCC(=O)O)cc1)NC[C@@H](O)c1cc(Br)no1 | 6460 nM
